Measurements from ChEMBL document CHEMBL1201862, “PubChem BioAssay data set” (2004).
Activity calls are given as the source filed them.

Columns and labels:
[1] = target: Heat shock protein HSP 90-alpha (Homo sapiens, UniProt P07900); test: Luminescence-based dose response biochemical high throughput screening assay for inhibitors of the Heat Shock Protein 90 (HSP90). [Related pubchem assays: 1831 (Summary AID.), 1846 (Confirmation screen.), 1789 (Primary screen.)]
[2] = target: T1, Zinc finger protein mex-5 (Caenorhabditis elegans, UniProt Q9XUB2); test: MEX-5/TCR-2 RNA interaction inhibitors, dose response, biochemical, C. elegans, fluorescence polarization (AID 1960)
T1 sequence (Q9XUB2 whole entry): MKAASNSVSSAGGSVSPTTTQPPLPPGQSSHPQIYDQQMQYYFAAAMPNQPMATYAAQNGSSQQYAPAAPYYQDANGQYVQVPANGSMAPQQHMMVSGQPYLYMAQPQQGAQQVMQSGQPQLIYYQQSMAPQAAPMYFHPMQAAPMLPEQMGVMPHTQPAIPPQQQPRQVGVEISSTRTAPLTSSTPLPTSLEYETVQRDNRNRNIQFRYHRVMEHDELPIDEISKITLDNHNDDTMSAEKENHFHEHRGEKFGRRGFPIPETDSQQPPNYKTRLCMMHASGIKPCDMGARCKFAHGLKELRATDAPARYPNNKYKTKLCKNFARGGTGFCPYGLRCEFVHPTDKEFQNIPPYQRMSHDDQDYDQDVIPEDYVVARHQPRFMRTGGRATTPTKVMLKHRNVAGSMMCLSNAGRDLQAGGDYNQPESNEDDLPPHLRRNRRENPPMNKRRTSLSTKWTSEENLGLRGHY

[3] = Luminescence Cell-Based Dose Response HTS to Identify Activators of Luciferase Translation or Activity in H4 […] Cells. [Related pubchem assays: 1829 (Project Summary), 1814 (Primary HTS)]; assay type: functional
H4 = test: Luminescence Cell-Based Dose Response HTS to Identify Activators of 5'UTR Stem-Loop Driven Prion Protein mRNA Translation in H4 Neuroglioblastoma Cells. [Related pubchem assays: 1829 (Project Summary), 1814 (Primary HTS)]; assay type: functional; settings: Homo sapiens
[4] = target: T2, RNA-binding protein pos-1 (Caenorhabditis elegans, UniProt G5EF15); test: inhibitors of POS-1/mex-3 RNA binding, dose response, biochemical, fluorescence polarization (AID 1964);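 further: purified POS-1 fused to maltose binding protein made in E. coli; potency of compounds blocking POS-1 binding to fluorescent RNA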
T2 sequence (G5EF15 whole entry): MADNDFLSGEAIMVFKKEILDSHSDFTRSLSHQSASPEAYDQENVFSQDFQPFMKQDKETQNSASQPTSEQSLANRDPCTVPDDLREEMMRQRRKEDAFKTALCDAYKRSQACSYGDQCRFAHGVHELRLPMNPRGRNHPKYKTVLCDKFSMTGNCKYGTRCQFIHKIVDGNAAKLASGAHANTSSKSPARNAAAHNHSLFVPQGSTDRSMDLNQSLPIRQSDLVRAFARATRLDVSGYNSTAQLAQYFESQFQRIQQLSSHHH

[5] = target: T3, Corticotropin-releasing factor receptor 2/Corticotropin-releasing factor-binding protein (Homo sapiens, UniProt P24387+Q13324); test: activators of CRF receptor 2 with binding protein – uHTS hits, confirmation (AID 602473); assay type: functional; settings: read-out: EC50_Mean
T3 sequence (Q13324 whole entry): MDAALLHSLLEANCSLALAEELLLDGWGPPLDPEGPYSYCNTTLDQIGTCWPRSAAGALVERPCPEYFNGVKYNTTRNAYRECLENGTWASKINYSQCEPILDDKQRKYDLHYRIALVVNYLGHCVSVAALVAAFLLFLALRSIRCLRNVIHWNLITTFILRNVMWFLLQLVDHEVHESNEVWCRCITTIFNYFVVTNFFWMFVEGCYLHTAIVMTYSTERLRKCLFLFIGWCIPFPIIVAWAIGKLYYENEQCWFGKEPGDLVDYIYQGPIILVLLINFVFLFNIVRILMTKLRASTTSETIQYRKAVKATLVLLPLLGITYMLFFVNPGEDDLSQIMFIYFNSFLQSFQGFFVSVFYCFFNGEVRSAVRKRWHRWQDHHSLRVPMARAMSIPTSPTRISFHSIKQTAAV
T3 sequence (P24387 whole entry): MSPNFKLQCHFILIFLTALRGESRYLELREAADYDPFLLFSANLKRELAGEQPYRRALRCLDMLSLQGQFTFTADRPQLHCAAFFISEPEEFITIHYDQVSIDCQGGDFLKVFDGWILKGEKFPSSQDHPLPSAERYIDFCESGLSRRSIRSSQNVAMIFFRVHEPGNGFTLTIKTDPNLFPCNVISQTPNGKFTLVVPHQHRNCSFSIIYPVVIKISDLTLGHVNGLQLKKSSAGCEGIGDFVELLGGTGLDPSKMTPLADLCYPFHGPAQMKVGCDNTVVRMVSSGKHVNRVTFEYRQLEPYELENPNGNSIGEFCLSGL

[6] = Luminescence Cell-Based Dose Confirmation HTS to Identify Activators of 5'UTR Stem-Loop Driven Alpha-Synuclein mRNA Translation in H4 Neuroglioblastoma Cells. [Related pubchem assays: 1829 (Project Summary), 1814 (Primary HTS)]; assay type: functional
[7] = target: Luciferin 4-monooxygenase (Photinus pyralis, UniProt P08659); test: In vitro luciferase assay using purified luciferase. [Related pubchem assays: 1299, 1270, 1295, 1375, 1287, 1281, 1293, 1291, 1289, 1280, 465, 1364, 1282, 1372, 1365, 1370, 1367, 1366, 1266, 1373, 1292, 1290, 1302, 1371, 1283, 1271, 1294, 1374, 1368, 1369 ]
HEK293 [8] = test: PMA/Ionomycin induced NF-kB luciferase assay in 293- NF-kB-Luc stable cells. [Related pubchem assays: 1299, 1270, 1295, 1375, 1287, 1281, 1293, 1291, 1289, 1280, 465, 1364, 1282, 1372, 1365, 1370, 1367, 1366, 1269, 1373, 1292, 1290, 1302, 1371, 1283, 1271, 1294, 1374, 1368, 1369 ]; assay type: functional, cell-based; settings: Homo sapiens
HEK293 [9] = test: Cytotoxicity assay in HEK293 cells. [Related pubchem assays (depositor defined):AID1266, AID1269, AID1270, AID1271, AID1280, AID1281, AID1282, AID1283, AID1287, AID1289, AID1290, AID1291, AID1292, AID1293, AID1294, AID1295, AID1299, AID1302, AID1364, AID1365, AID1366, AID1367, AID1369, AID1370, AID1371, AID1372, AID1373, AID1374, AID1375, AID1384 …; assay type: functional, cell-based; settings: Homo sapiens
HEK293 [10] = test: TNF Induced NF-kB Luciferase in 293-NF-kB-Luc Stable Cells. [Related pubchem assays: 1266, 1299, 1269, 1373, 1292, 1290, 1302, 1371, 1283, 1270, 1295, 1271, 1375, 1294, 1374, 1281, 1293, 1291, 1289, 1280, 465, 1368, 1364, 1282, 1372, 1365, 1369, 1370, 1367, 1366 ]; assay type: functional, cell-based; settings: Homo sapiens
[11] = Vero cell cytotoxicity, dose response, cytotoxicity control for Vif-APOBEC3G degradation inhibitor project, Vero cells (AID 1117358); assay type: functional; settings: Human immunodeficiency virus 1, Vero
[12] = inducers of E-selectin gene expression, confirmation, orthogonal assay for E-selectin inducer project, cell-based, HUVEC, RT-qPCR, dry powder (AID 1117270); assay type: functional
Protein skinhead-1 = target: T4, Protein skinhead-1 (Caenorhabditis elegans, UniProt P34707); assay type: functional
T4 sequence (P34707 whole entry): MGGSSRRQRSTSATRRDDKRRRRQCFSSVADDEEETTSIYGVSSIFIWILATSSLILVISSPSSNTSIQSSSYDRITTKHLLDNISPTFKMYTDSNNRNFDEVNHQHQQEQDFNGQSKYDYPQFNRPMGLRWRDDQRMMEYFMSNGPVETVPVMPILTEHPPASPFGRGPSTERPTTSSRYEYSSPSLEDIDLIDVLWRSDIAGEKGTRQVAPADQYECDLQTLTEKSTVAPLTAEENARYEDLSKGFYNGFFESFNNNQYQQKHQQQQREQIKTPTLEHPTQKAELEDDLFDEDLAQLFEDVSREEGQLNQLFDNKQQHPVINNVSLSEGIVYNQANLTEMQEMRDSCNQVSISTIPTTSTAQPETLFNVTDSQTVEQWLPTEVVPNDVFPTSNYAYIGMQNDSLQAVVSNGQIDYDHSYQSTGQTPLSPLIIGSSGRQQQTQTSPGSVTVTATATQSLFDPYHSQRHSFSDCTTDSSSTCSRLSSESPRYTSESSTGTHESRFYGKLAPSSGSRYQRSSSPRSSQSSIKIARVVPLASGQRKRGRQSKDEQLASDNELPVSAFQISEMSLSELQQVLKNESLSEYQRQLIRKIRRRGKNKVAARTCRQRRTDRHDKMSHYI

Chain of Luciferin 4-monooxygenase (P08659 whole entry): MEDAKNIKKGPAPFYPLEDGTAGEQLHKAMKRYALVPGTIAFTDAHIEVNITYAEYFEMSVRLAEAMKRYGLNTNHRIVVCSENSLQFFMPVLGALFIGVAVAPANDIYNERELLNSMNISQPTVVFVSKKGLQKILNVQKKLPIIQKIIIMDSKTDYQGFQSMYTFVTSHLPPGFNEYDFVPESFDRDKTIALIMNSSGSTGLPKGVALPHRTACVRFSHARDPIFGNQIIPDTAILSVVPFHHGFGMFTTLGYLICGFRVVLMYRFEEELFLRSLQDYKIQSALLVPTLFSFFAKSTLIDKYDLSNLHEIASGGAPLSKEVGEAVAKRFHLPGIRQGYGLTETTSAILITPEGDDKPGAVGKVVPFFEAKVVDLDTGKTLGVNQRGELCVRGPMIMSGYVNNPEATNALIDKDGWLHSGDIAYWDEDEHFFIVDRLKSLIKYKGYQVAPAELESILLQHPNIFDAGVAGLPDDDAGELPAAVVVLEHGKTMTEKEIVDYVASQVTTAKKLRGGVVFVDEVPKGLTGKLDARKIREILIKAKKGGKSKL

Cc1ccc2oc(=O)c(/C=C(\O)c3cccs3)nc2c1
IC50 [1]: 5.05 µM (active)
EC50 [2]: 6.82 µM (inconclusive)
EC50 [3]: 13.1 µM (active)
EC50 (H4): 16.5 µM (active)
EC50 [4]: 21.3 µM (inconclusive)
EC50 [5]: 4.87 µM (active)
EC50 [6]: 16.6 µM (active)

Cc1ccc2[nH]c(=O)c(C(=O)/C=C/c3ccccc3Cl)c(-c3ccccc3)c2c1
EC50 [7]: > 8 µM (not active)
EC50 (HEK293 [8]): 1.17 µM (active)
EC50 (HEK293 [9]): 5.72 µM (inactive)
EC50 (HEK293 [10]): 2.6 µM (active)

COc1cc2c(cc1NC(=O)CC1SC(N3CCCC3)=NC1=O)oc1ccccc12 (centres undefined)
CC50 [11]: > 40 µM (active)

Cc1cccc(NC(=O)NCc2ccc3c(c2)cc(C)n3C)c1
AC50 [12]: 306 nM (active)
IC50 (Protein skinhead-1): > 100 µM (inactive)
